Test results from PMC12548382, “Discovery of a potent covalent inhibitor that unusually distorts the catalytic dyad of SARS-CoV-2 main protease” (Journal of Virology, 2025).

What was measured:
SARS-CoV-2 = SARS-CoV-2 viral load reduction assay in VeroE6 cells; type: cell-based; details: 10 µM, MOI 0.1, 48 hpi, qRT-PCR of supernatant
Procedure: Fig 3 In vitro antiviral activity of selected compounds. VeroE6 cells were infected with SARS-CoV-2 (multiplicity of infection [MOI] of 0.1) and treated with various concentrations of H102, PF-07321332, GC376, or vehicle control. Viral RNA load in the cell culture supernatant samples was quantified by qRT-PCR. All experiments were performed in triplicate, and the values are presented as mean ± SD. P-values were calculated using Student’s t-test to compare each compound candidate with vehicle control. *P < 0.05.
Viral load reduction assay was performed for the evaluation of antiviral activity as we described previously ([34]). Briefly, SARS-CoV-2-infected VeroE6 cells were treated with different concentrations of compounds or dimethyl sulfoxide (DMSO) control. Then, cell culture supernatant samples were collected at 48 h post-inoculation (hpi) for qRT-PCR analysis of viral RNA load. Culture supernatant was lysed with buffer AVL and then extracted for total RNA with the QIAamp viral RNA mini kit (Qiagen). qRT-PCR was used for quantitation of SARS-CoV-2 viral load using the QuantiNova Probe RT-PCR kit (Qiagen) with a LightCycler 480 Real-Time PCR System (Roche). […]

SARS-CoV-2 M^pro = SARS-CoV-2 M^pro (Severe acute respiratory syndrome coronavirus 2, UniProt P0DTD1); assay: SARS-CoV-2 M^pro enzyme inhibition assay (FRET substrate); type: biochemical; details: for IC50: 150 nM enzyme, 30 min preincubation, 25 µM substrate, mean ± SD
SARS-CoV M^pro = SARS-CoV M^pro ref 27; cited from earlier work

SMILES | IC50 (SARS-CoV-2 M^pro) | further results
CC(C)C[C@H](NC(=O)OCc1ccccc1)C(=O)N[C@@H](C[C@@H]1CCNC1=O)C(O)S(=O)(=O)[O-].[Na+] (some centres unmarked) [GC376] |  | reduction in viral RNA load (SARS-CoV-2): 3.93 log10
COc1ccc(C[C@H](NC(=O)[C@H](C)NC(=O)OC(C)(C)C)C(=O)N[C@@H](C[C@@H]2CCNC2=O)C(=O)C(=O)Nc2cccc(C(C)=O)c2)cc1 [H94] | 24.8 ± 2.3 µM | 
COc1ccc(C[C@H](NC(=O)[C@H](C)NC(=O)c2cnc(-c3ccc(C(C)=O)cc3)s2)C(=O)N[C@@H](C[C@@H]2CCNC2=O)C(=O)C(=O)Nc2cccc(C(C)=O)c2)cc1 [H96] | 9.4 ± 3 µM | increase in M^pro inhibitory potency compared to compound 17 (SARS-CoV-2 M^pro; vs compound 17): > 10 fold
COc1ccc(C[C@H](NC(=O)[C@@H](NC(=O)OC(C)(C)C)C(C)(C)C)C(=O)N[C@@H](C[C@@H]2CCNC2=O)C(=O)C(=O)Nc2cccc(C(C)=O)c2)cc1 [H97] | 6.3 ± 2.7 µM | 
COc1ccc(C[C@H](NC(=O)[C@@H](NC(=O)OC(C)(C)C)C(C)C)C(=O)N[C@@H](C[C@@H]2CCNC2=O)C(=O)C(=O)Nc2cccc(C(C)=O)c2)cc1 [H98] | 8.7 ± 2.5 µM | 
COc1ccc(C[C@H](NC(=O)[C@H](CC(C)C)NC(=O)OC(C)(C)C)C(=O)N[C@@H](C[C@@H]2CCNC2=O)C(=O)C(=O)Nc2cccc(C(C)=O)c2)cc1 [H99] | 9.9 ± 4.7 µM | 
CC(=O)c1cccc(NC(=O)C(=O)[C@H](C[C@@H]2CCNC2=O)NC(=O)[C@H](CC(C)C)NC(=O)[C@@H](NC(=O)OC(C)(C)C)C(C)(C)C)c1 [H101] | 3.8 ± 0.4 µM | 
COC[C@H](NC(=O)OC(C)(C)C)C(=O)N[C@@H](Cc1ccc(OC)cc1)C(=O)N[C@@H](C[C@@H]1CCNC1=O)C(=O)C(=O)Nc1cccc(C(C)=O)c1 [H137] | 28.9 ± 3.8 µM | 
CC(C)(C)[C@H](NC(=O)C(F)(F)F)C(=O)N1C[C@H]2[C@@H]([C@H]1C(=O)N[C@H](C#N)C[C@@H]1CCNC1=O)C2(C)C [PF-07321332, Nirmatrelvir] |  | reduction in viral RNA load (SARS-CoV-2): 3.48 log10
COC(=O)[C@H](C[C@@H]1CCNC1=O)NC(=O)OC(C)(C)C [compound 3] |  | IC50 (SARS-CoV M^pro): 300 nM
